≈ marks a conversion by molar mass, not a printed value. Like-named read-outs stand apart in the source and are kept apart here.
Key:
Type in all cases: cell-based
[1] = system: Trichophyton mentagrophytes; assay: Agar dilution MIC (Example 2); conditions: 168 h, agar plate, 27 °C, 7 days
Method: (§1) Series of diluted samples (20000, 10000, 5000, 2500, 2000, 1250, 625, 313, 156, 78, 39, 20, 10, 5, 2.5, 1.25 mg/l) of the compounds of the invention were prepared using dimethylsulfoxide. A sensitive culture medium-N (Nissui Seiyaku Co.) was used for bacteria and a potato dextrose agar culture medium (Nissui Seiyaku Co.) was used for fungi. 0.5 ml of each sample was added to and mixed with 9.5 ml of the culture medium, poured into a Petri dish and solidified to obtain a plate. As a result, the concentration of the compounds of the invention in the agar culture medium were 1000, 500, 250, 125, 100, 62.5, 31.3, 15.6, 7.8, 3.9, 2.0, 1.0, 0.5, 0.25, 0.125, 0.062 mg/l. The bacterium inoculated were cultured in a bouillon for the assay of sensitivity (Nissui Seiyaku Co.) at 37 °C for 20 hours, and the fungi were cultured in the potato dextrose agar culture medium (Nissui Seiyaku Co.) for 10 days and then a 10^6 CFU/ml suspension was prepared from each of them. A test bacteria or fungi suspension was streaked on an agar plate containing the compound of the present invention with platinum wire loop, and the agar plate was cultured at 37±1 °C for 18 to 20 hours for bacteria or at 27 °C for 7 days for fungi. A concentration at which no growth was seen was taken as minimum inhibitory concentration [MIC(mg/l)]. Symbols in the table mean the followings; • A: Bacillus subtilis, • B: Trichophyton mentagrophytes, • C: Rhodotorula mucilaginosa.

[2] = system: freshwater green alga (Selenastrum capricornutum); assay: Inhibition of propagation of freshwater green alga (Example 4); conditions: after 72 hours, cell number vs non-treated lot; for inhibition at 0.05 ppm: 50ppb, read-out: Propagation inhibiting rate(%) 50ppb; for inhibition at 0.5 ppm: 500ppb, read-out: Propagation inhibiting rate(%) 500ppb
Method: A predetermined amount of each of the compounds of the invention was dissolved in a culture medium containing 10^5 /ml of a freshwater green alga (Selenastrum capricornutum) at a logarithmic growth phase to prepare samples having a concentration of the compound of the invention in the medium of 500 ppb and 50ppb respectively. The samples were stationary cultured at 23±1 °C for […] under continuous illumination.
After 72 hours, the number of cells was measured using a hemacytometer to obtain propagation rate. The propagation inhibiting rate was calculated from comparison with the non-treated lot.

Saccharomyces cerevisiae = assay: Agar dilution MIC (Example 3); conditions: 168 h, agar plate, 27 °C, 7 days
Method: (§2) Series of diluted samples (20000, 10000, 5000, 2500, 1250, 625, 313, 156, 78, 39 mg/l) of the compounds of the invention were prepared using dimethylsulfoxide. A sensitive culture medium-N (Nissui Seiyaku Co.) was used for bacteria and a potato dextrose agar culture medium (Nissui Seiyaku Co.) was used for fungi. 0.5 ml of each sample was added to and mixed with 9.5 ml of the culture medium, poured into a Petri dish and solidified to obtain a plate. As a result, the concentration of the compounds of the invention in the agar culture medium were 1000, 500, 250, 125, 62.5, 31.3, 15.6, 7.8, 3.9, 2.0 mg/l. The bacterium inoculated were cultured in a bouillon for the assay of sensitivity (Nissui Seiyaku Co.) at 37 °C for 20 hours, and the fungi were cultured in the potato dextrose agar culture medium (Nissui Seiyaku Co.) for 10 days and then a 10^6 CFU/ml suspension was prepared from each of them. A test bacteria or fungi suspension was streaked on an agar plate containing the compound of the present invention with platinum wire loop, and the agar plate was cultured at 37±1 °C for 18 to 20 hours for bacteria or at 27 °C for 7 days for fungi. A concentration at which no growth was seen was taken as minimum inhibitory concentration (MIC). Symbols in the tables mean the followings; • A: Bacillus subtilis, • B: Trichophyton mentagrophytes, • C: Staphylococcus aureus, • D: Aspergillus niger, • E: Penicillium funiculosum, • F: Candida albicans, • G: Micrococcus luteus, • H: Corynebacterium aquaticum, • I: Chaetomium globosum, • J: Fusarium moniliforme, • K: Saccharomyces cerevisiae, • L: Rhodotorula rubra, • M: Cladosporium cladosporioides, • N: Alternaria alternata.

Fusarium moniliforme = assay: Agar dilution MIC (Example 3); conditions: Fusarium verticillioides, 168 h, agar plate, 27 °C, 7 days
Method: as §2

[3] = system: Cladosporium cladosporioides; assay: Agar dilution MIC (Example 3); conditions: 168 h, agar plate, 27 °C, 7 days
Method: as §2

Penicillium funiculosum = assay: Agar dilution MIC (Example 3); conditions: Talaromyces funiculosus, 168 h, agar plate, 27 °C, 7 days
Method: as §2

[4] = system: Corynebacterium aquaticum; assay: Agar dilution MIC (Example 3); conditions: Leifsonia aquatica, agar plate, 37±1 °C, 18 to 20 hours
Method: as §2

Chaetomium globosum = assay: Agar dilution MIC (Example 3); conditions: 168 h, agar plate, 27 °C, 7 days
Method: as §2

Rhodotorula mucilaginosa = assay: Agar dilution MIC (Example 2); conditions: 168 h, agar plate, 27 °C, 7 days
Method: as §1

[5] = system: Trichophyton mentagrophytes; conditions: 72 h, 100 ppm
Method: 31.3 ml of Trichophyton mentagrophytes to be tested was added to 125 ml of a potato dextrose agar culture medium (Nissui Seiyaku Co.). The medium was stirred not to foam the solutions, poured into plates uniformly and solidified.
Thereafter, predetermined amounts of the compounds of the invention were weighted and diluted with acetone to predetermined concentrations.
Paper disks were impregnated with samples containing predetermined amounts of the compounds of the invention, laid on a filter, dried with air and placed on a plate containing test microbe at equal intervals.
Trichophyton mentagrophytes was cultured at 28 °C for 3 days in a thermostatic chamber and the diameter of each inhibiting zone was measured to evaluate the activity of each compound. Symbols in the table mean the followings; • A: Trichophyton mentagrophytes, • ++: strongly inhibiting zone (equal to or more than 21 mm) is observed, • +: inhibiting zone (10 to 20 mm) is observed, • -: no inhibiting zone is observed.

[6] = system: seawater diatom [Nitzschia closterium]; assay: Inhibition of propagation of seawater diatom (Example 5); conditions: Cylindrotheca closterium, 72 h, read-out: Propagation inhibiting rate(%) 500ppb
Method: A predetermined amount of each of the compounds of the invention was dissolved in culture media containing 10^5 /ml of a seawater diatom [Nitzschia closterium] at a logarithmic growth phase to prepare samples having a concentration of the compound in the medium of 500 ppb. The samples were stationary cultured at 22±1 °C for […] under continuous illumination.
After 72 hours, cells were collected by centrifugation and disrupted by addition of methanol to extract chlorophyll, and the amount of chlorophyll was measured from absorbance using a spectrophotometer to obtain propagation rate. The propagation inhibiting rate was calculated from comparison with the non-treated lot.

[7] = system: freshwater green alga (Scenedesmus pannonicus); assay: Inhibition of propagation of freshwater algae (Example 6); conditions: Desmodesmus pannonicus, 500ppb
Method: (§3) A predetermined amount each of the compounds of the invention was dissolved in a culture medium containing 10^5 /ml of a freshwater alga at a logarithmic growth phase to prepare samples having a concentration of the compound of the invention in the medium of 500 ppb and 50 ppb respectively. A shaking culture at 100 rpm was performed for […] under continuous illumination at 20±2 °C for freshwater diatom and at 23±2 °C for other algae.
(§4) After 72 hours and 168 hours, the […] of cells was measured using a hemacytometer to obtain propagation rate. The propagation inhibiting rate was calculated from comparison with the non-treated lot. Symbols in the tables mean the followings; • A: freshwater green alga (Chlorella pyrenoidosa), • B: freshwater blue-green alga (Microcystis aeruginosa), • C: freshwater diatom (Diatoma elongatum), • D: freshwater green alga (Scenedesmus pannonicus).

[8] = system: freshwater blue-green alga (Microcystis aeruginosa); assay: as above; conditions: 500ppb
Method: as §3, §4

[9] = system: freshwater diatom (Diatoma elongatum); assay: as above; conditions: Diatoma tenuis; for inhibition at 0.05 ppm: 50ppb; for inhibition at 0.5 ppm: 500ppb
Method: as §3, §4

[10] = system: freshwater green alga (Chlorella pyrenoidosa); assay: as above; conditions: Auxenochlorella pyrenoidosa, 500ppb
Method: as §3, §4

Rhodotorula rubra = assay: Agar dilution MIC (Example 3); conditions: 168 h, agar plate, 27 °C, 7 days
Method: as §2

[11] = system: Trichophyton mentagrophytes; assay: Agar dilution MIC (Example 3); conditions: 168 h, agar plate, 27 °C, 7 days
Method: as §2

Aspergillus niger = assay: Agar dilution MIC (Example 3); conditions: 168 h, agar plate, 27 °C, 7 days
Method: as §2

[12] = 168hr, read-out: Propagation inhibiting rate (%) 500ppb 168hr
[13] = 72hr, read-out: Propagation inhibiting rate(%) 500ppb 72hr
[14] = 168hr, read-out: Propagation inhibiting rate(%) 500ppb 168hr
[15] = 72hr, read-out: Propagation inhibiting rate(%) 50ppb 72hr
[16] = 168hr, read-out: Propagation inhibiting rate(%) 50ppb 168hr
[17] = 72hr, read-out: Propagation inhibiting rate (%) 500ppb 72hr

Structure (SMILES)	MIC [1] [µg/mL]	inhibition at 0.05 ppm [2] [%]	inhibition at 0.5 ppm [2] [%]	MIC (Saccharomyces cerevisiae) [µg/mL]	MIC [3] [µg/mL]	MIC [4] [µg/mL]	MIC (Rhodotorula mucilaginosa) [µg/mL]	Judgment (Target bacteria: A) [5]	inhibition at 0.5 ppm [7, 12] [%]	further results
Cc1ccc(CN(C)Cc2ccc(C(C)(C)C)cc2)cc1C [Compound 23]	2 (≈ 6.77 µM)	65	97	125 (≈ 423 µM)	125 (≈ 423 µM)	31.3 (≈ 106 µM)				MIC (Fusarium moniliforme): 125 µg/mL (≈ 423 µM); MIC (Penicillium funiculosum): 63 µg/mL (≈ 213 µM); MIC (Chaetomium globosum): 125 µg/mL (≈ 423 µM)
CN(Cc1ccc(C(C)(C)C)cc1)Cc1cccc2ccccc12 [Compound 30]	< 0.062		94				15.6 (≈ 49.1 µM)	++ (strongly inhibiting zone (equal to or more than 21 mm) is observed)		
Clc1ccc(CNCc2cccc3ccccc23)cc1Cl [Compound 49]	15.6 (≈ 49.3 µM)		97				62.5 (≈ 198 µM)			inhibition at 0.5 ppm [6]: 100%
CN(Cc1ccc(Cl)cc1)Cc1cccc2ccccc12 [Compound 31]		88	95					+ (inhibiting zone (10 to 20 mm) is observed)	79	inhibition at 0.5 ppm [8, 13]: 90%; inhibition at 0.5 ppm [8, 14]: 100%; inhibition at 0.05 ppm [9, 15]: 61%; inhibition at 0.05 ppm [9, 16]: 87%; inhibition at 0.5 ppm [9, 13]: 81%; inhibition at 0.5 ppm [9, 14]: 95%
CN(Cc1ccc(C(C)(C)C)cc1)C1CCCc2ccccc21 (stereo not drawn) [Compound 6]	< 0.062		70	31.3 (≈ 102 µM)	125 (≈ 407 µM)	15.6 (≈ 50.7 µM)		++ (strongly inhibiting zone (equal to or more than 21 mm) is observed)		inhibition at 0.5 ppm [10, 14]: 79%
CC(c1ccccc1Cl)N(C)Cc1ccc(C(C)(C)C)cc1 (stereo not drawn) [Compound 9]	0.5 (≈ 1.58 µM)	59	94					++ (strongly inhibiting zone (equal to or more than 21 mm) is observed)	85	inhibition at 0.5 ppm [8, 13]: 97%; inhibition at 0.5 ppm [8, 14]: 98%; inhibition at 0.05 ppm [9, 15]: 88%; inhibition at 0.05 ppm [9, 16]: 94%; inhibition at 0.5 ppm [9, 13]: 76%; inhibition at 0.5 ppm [9, 14]: 100%; inhibition at 0.5 ppm [10, 13]: 70%
CN(Cc1ccc(C(C)(C)CCl)cc1)Cc1cccc2ccccc12 [Compound 35]	7.8 (≈ 22.2 µM)	75	94				7.8 (≈ 22.2 µM)			
Cc1cc(C)cc(CN(C)Cc2ccc(C(C)(C)C)cc2)c1 [Compound 2]		84	96	63 (≈ 213 µM)	125 (≈ 423 µM)	31.3 (≈ 106 µM)		++ (strongly inhibiting zone (equal to or more than 21 mm) is observed)	99	inhibition at 0.5 ppm [7, 17]: 91%; MIC (Rhodotorula rubra): 125 µg/mL (≈ 423 µM); MIC [11]: < 2 µg/mL; MIC (Fusarium moniliforme): 63 µg/mL (≈ 213 µM); MIC (Penicillium funiculosum): 31.3 µg/mL (≈ 106 µM); MIC (Aspergillus niger): 125 µg/mL (≈ 423 µM); MIC (Chaetomium globosum): 31.3 µg/mL (≈ 106 µM)
CC(C)(C)c1ccc(CNCc2ccc(Cl)c(Cl)c2)cc1 [Compound 34]	7.8 (≈ 24.2 µM)		98				62.5 (≈ 194 µM)			inhibition at 0.5 ppm [6]: 100%
CC(C)Cc1ccc(CN(C)Cc2cccc3ccccc23)cc1 [Compound 32]	< 1		86							inhibition at 0.5 ppm [7, 17]: 83%; inhibition at 0.5 ppm [10, 14]: 75%

Source: patent EP1059033A1, “INDUSTRIAL ANTIBACTERIAL/ANTIFUNGAL AGENTS, ALGICIDES AND ANTI-BIOLOGICAL ADHESION AGENTS CONTAINING BENZYLAMINES” (Nissan Chemical Industries, Ltd., priority 1998, dated 1999)
